Measured values published in patent publication US20250353873A1, “COMPOUNDS AND METHODS FOR MODULATING APOE EXPRESSION” (Ionis Pharmaceuticals, Inc., priority 2024, published 2025).
Strand notation (5' to 3'): a small letter for the sugar, then the base; units joined by * are phosphorothioate-linked, units joined directly phosphodiester-linked; [ ] holds rarer units or linkages, { } end groups; capitals alone tell only the bases. [ms] = mesyl phosphoramidate linkage; e = 2'-O-(2-methoxyethyl) (MOE); k = constrained ethyl (cEt); [5mC] = 5-methylcytosine; d = 2'-deoxy (DNA)

Legend:
[1] = test system: human APOE RNA; test: Activity in APOE C57BL/6NTac-Apoeem7250 knock-in mice, single ICV bolus, 4 weeks (Example 10); type: in vivo; conditions: C57BL/6NTac-Apoeem7250 knock-in mice, single ICV bolus 300 μg, 4 weeks (Table 22)
Method: Modified oligonucleotides described above were tested in the APOE C57BL/6NTac-Apoeem7250 knock-in mouse model described above.
APOE C57BL/6NTac-Apoeem7250 knock-in mice were divided into groups of 2-4 mice each. Each mouse received a single ICV bolus of 300 μg of modified oligonucleotide. A group of 3-4 mice received a single ICV bolus with PBS as a negative control.
Four weeks post treatment, mice were sacrificed and RNA was extracted from cortical brain tissue and spinal cord for quantitative real-time RT-PCR analysis of RNA expression of APOE using human primer probe set RTS3073 (described herein above). APOE RNA levels were normalized to mouse Ppia. Mouse Ppia was amplified using primer probe set m_cyclo24 (described herein above). Results are presented as percent human APOE RNA relative to the amount of human APOE RNA in PBS treated animals, (% control). Each experiment is identified in separate tables below.

[2] = test system: human APOE RNA; test: Dose-dependent inhibition of human APOE RNA in HepG2 cells, electroporation, 24 hours (Example 6); type: cell-based
Method: Modified oligonucleotides selected from the examples above were tested at various doses in HepG2.
HepG2 cells plated at a density of 50,000 cells per well were treated by electroporation with various concentrations of modified oligonucleotide as specified in the tables below. […] APOE RNA levels were measured using the human primer probe set RTS3073 (described herein above). APOE RNA levels were normalized to human GAPDH. Human GAPDH was amplified using human primer probe set RTS 104 (described herein above). Results are presented as percent APOE RNA, relative to the amount of APOE RNA in untreated control cells (% UTC). The half maximal inhibitory concentration (IC50) of each modified oligonucleotide was calculated in GraphPad Prism 10 (GraphPad Software, San Diego, CA) and is also presented in the tables below.

[3] = test system: human APOE RNA; test: Activity in APOE C57BL/6NTac-Apoeem7250 knock-in mice, single ICV bolus, 16 weeks (Example 12); type: in vivo; conditions: single ICV bolus 300 μg, 16 weeks post treatment, normalized to mouse Ppia
Summary of the method: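 A single 300 μg intracerebroventricular dose was given, with PBS-treated mice as reference; cortical and spinal cord tissue was taken 16 weeks later. RT-qPCR quantified human APOE RNA, Ppia-normalized, expressed relative to PBS animals (% control).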

Substance	APOE RNA (% control) Cortex [1] [% control]	APOE RNA (% control) Spinal Cord [1] [% control]	IC50 [2] [nM]	APOE RNA (% UTC) ([2]; 5 nM)	APOE RNA (% UTC) ([2]; 13 nM)	APOE RNA (% UTC) ([2]; 33 nM)	APOE RNA (% UTC) ([2]; 82 nM)	APOE RNA (% UTC) ([2]; 205 nM)	APOE RNA (% UTC) ([2]; 512 nM)	APOE RNA (% UTC) ([2]; 1,280 nM)	APOE RNA (% UTC) ([2]; 3,200 nM)	APOE RNA (% UTC) ([2]; 8,000 nM)	APOE RNA (% UTC) ([2]; 20,000 nM)	APOE RNA (% control) Cortex [3] [% control]	APOE RNA (% control) Spinal Cord [3] [% control]
1736531 (e[5mC]*eT*eT*eG*eG*kTdG[ms]dA[ms]dA[ms]dT*d[5mC]*dT*dT*dT*dA[ms]dT*eT*eA*eA*eA; antisense) [Compound 1736531]	42	52	940	97	91	89	86	77	53	49	33	12	20	54	74
1736529 (e[5mC]*eT*eT*eG*eG*eTdG[ms]dA[ms]dA[ms]dT*d[5mC]*dT*dT*dT*dA[ms]dT*kT*kA*eA*eA; antisense) [Compound 1736529]	51	46	1120	92	102	92	115	75	56	45	29	13	30	60	28
1736492 (e[5mC]*eTeT*eG*eG*eT*dG[ms]dA[ms]dA[ms]dT*d[5mC]*dT*dT*dT*dA[ms]dT*kT*eA*eA*eA; antisense) [Compound 1736492]	45	46	940	95	87	76	82	71	52	52	41	15	20	53	52
1736533 (e[5mC]*eT*eT*eG*eGeT*dG[ms]dA[ms]dA[ms]dT*d[5mC]*dT*dT*dT*dA[ms]dT*kT*eA*eA*eA; antisense) [Compound 1736533]	34	54	390	83	83	78	74	55	50	38	28	13	5	57	49
1736536 (e[5mC]*eT*eT*eG*kGkT*dG[ms]dA[ms]dA[ms]dT*d[5mC]*dT*dT*dT*dA[ms]dT*eT*eA*eA*eA; antisense) [Compound 1736536]	31	53	620	97	102	79	79	63	58	43	25	9	6	36	31
1736534 (e[5mC]*eT*eT*eG*eGeT*dG[ms]dA[ms]dA[ms]dT*d[5mC]*dT*dT*dT*dA[ms]dT*kT*kA*eA*eA; antisense) [Compound 1736534]	31	55	890	99	110	93	103	65	50	45	24	19	25	46	34
1736535 (e[5mC]*eT*eT*eG*eGkT*dG[ms]dA[ms]dA[ms]dT*d[5mC]*dT*dT*dT*dA[ms]dT*eT*eA*eA*eA; antisense) [Compound 1736535]	39	63	1660	90	96	99	93	67	69	53	24	51	13	47	26
1736528 (e[5mC]*eT*eT*eG*eG*eTdG[ms]dA[ms]dA[ms]dT*d[5mC]*dT*dT*dT*dA[ms]dT*kT*eA*eA*eA; antisense) [Compound 1736528]	57	56	1630	100	112	107	116	84	62	50	39	23	16		
1736493 (e[5mC]*eTeT*eG*eG*eT*dG[ms]dA[ms]dA[ms]dT*d[5mC]*dT*dT*dT*dA[ms]dT*kT*kA*eA*eA; antisense) [Compound 1736493]	47	51	140	73	85	67	58	50	35	25	8	6	8	57	51
